Tested on: 287954-098-R-J1 tumor spheroid viability
Experiment: Anticancer human tumor 287954-098-R-J1 patient-derived Ewing sarcoma cell line growth inhibition
Conditions: spheroids with HUVEC and MSC; for IC50: curve of first compound; for viability, T/C: stronger effect = lower value
Procedure, shortened: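 Complex spheroids of malignant cells with endothelial cells and mesenchymal stem cells; agents alone or combined, from near clinical Cmax (or 10 microM if unknown) down in half-log steps, 0.25% DMSO final.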
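Note: spheroids exposed to compound for 7 days before viability readout.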
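Throughout, for viability, T/C: luminescent signal taken as surrogate of viable cell content; 100% = DMSO vehicle control viability and lower means growth inhibition.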

Structure (SMILES): Cc1cc(C)c(CNC(=O)c2cc(-c3ccc(CN4CCOCC4)cc3)cc3c2cnn3C2CCCC2)c(=O)[nH]1 + COc1cc2c(cc1O)CCNC21CSC2c3c(OC(C)=O)c(C)c4c(c3C(COC1=O)N1C(O)C3Cc5cc(C)c(OC)c(O)c5C(C21)N3C)OCO4
- IC50 (second compound 30 pM): > 10 µM
- IC50 (second compound 94.9 pM): > 10 µM
- IC50 (second compound 0.0003 µM): > 10 µM
- IC50 (second compound 0.000949 µM): < 0.0316 µM
- IC50 (second compound 0.003 µM): < 0.0316 µM
- viability, T/C (second compound 30 pM, first compound 0.0316 µM): 106%
- viability, T/C (second compound 30 pM, first compound 0.1 µM): 108%
- viability, T/C (second compound 30 pM, first compound 0.316 µM): 106%
- viability, T/C (second compound 30 pM, first compound 1 µM): 107%
- viability, T/C (second compound 30 pM, first compound 3.16 µM): 117%
- viability, T/C (second compound 30 pM, first compound 10 µM): 116%
- viability, T/C (second compound 94.9 pM, first compound 0.0316 µM): 106%
- viability, T/C (second compound 94.9 pM, first compound 0.1 µM): 105%
- viability, T/C (second compound 94.9 pM, first compound 0.316 µM): 105%
- viability, T/C (second compound 94.9 pM, first compound 1 µM): 109%
- viability, T/C (second compound 94.9 pM, first compound 3.16 µM): 108%
- viability, T/C (second compound 94.9 pM, first compound 10 µM): 117%
- viability, T/C (second compound 0.0003 µM, first compound 0.0316 µM): 96.7%
- viability, T/C (second compound 0.0003 µM, first compound 0.1 µM): 109%
- viability, T/C (second compound 0.0003 µM, first compound 0.316 µM): 108%
- viability, T/C (second compound 0.0003 µM, first compound 1 µM): 113%
- viability, T/C (second compound 0.0003 µM, first compound 3.16 µM): 103%
- viability, T/C (second compound 0.0003 µM, first compound 10 µM): 102%
- viability, T/C (second compound 0.000949 µM, first compound 0.0316 µM): 0.27%
- viability, T/C (second compound 0.000949 µM, first compound 0.1 µM): 0.28%
- viability, T/C (second compound 0.000949 µM, first compound 0.316 µM): 0.23%
- viability, T/C (second compound 0.000949 µM, first compound 1 µM): 0.2%
- viability, T/C (second compound 0.000949 µM, first compound 3.16 µM): 0.18%
- viability, T/C (second compound 0.000949 µM, first compound 10 µM): 0.25%
- viability, T/C (second compound 0.003 µM, first compound 0.0316 µM): 0.2%
- viability, T/C (second compound 0.003 µM, first compound 0.1 µM): 0.23%
- viability, T/C (second compound 0.003 µM, first compound 0.316 µM): 0.15%
- viability, T/C (second compound 0.003 µM, first compound 1 µM): 0.12%
- viability, T/C (second compound 0.003 µM, first compound 3.16 µM): 0.12%
- viability, T/C (second compound 0.003 µM, first compound 10 µM): 0.22%

Structure (SMILES): Cc1cc(C)c(CNC(=O)c2cc(-c3ccc(CN4CCOCC4)cc3)cc3c2cnn3C2CCCC2)c(=O)[nH]1 + Cn1nnc2c(C(N)=O)ncn2c1=O
- IC50 (second compound 1 µM): > 10 µM
- IC50 (second compound 3.16 µM): > 10 µM
- IC50 (second compound 10 µM): > 10 µM
- IC50 (second compound 31.6 µM): > 10 µM
- IC50 (second compound 100 µM): > 10 µM
- viability, T/C (second compound 1 µM, first compound 0.0316 µM): 104%
- viability, T/C (second compound 1 µM, first compound 0.1 µM): 100%
- viability, T/C (second compound 1 µM, first compound 0.316 µM): 100%
- viability, T/C (second compound 1 µM, first compound 1 µM): 103%
- viability, T/C (second compound 1 µM, first compound 3.16 µM): 105%
- viability, T/C (second compound 1 µM, first compound 10 µM): 115%
- viability, T/C (second compound 3.16 µM, first compound 0.0316 µM): 105%
- viability, T/C (second compound 3.16 µM, first compound 0.1 µM): 107%
- viability, T/C (second compound 3.16 µM, first compound 0.316 µM): 100%
- viability, T/C (second compound 3.16 µM, first compound 1 µM): 108%
- viability, T/C (second compound 3.16 µM, first compound 3.16 µM): 107%
- viability, T/C (second compound 3.16 µM, first compound 10 µM): 108%
- viability, T/C (second compound 10 µM, first compound 0.0316 µM): 110%
- viability, T/C (second compound 10 µM, first compound 0.1 µM): 108%
- viability, T/C (second compound 10 µM, first compound 0.316 µM): 107%
- viability, T/C (second compound 10 µM, first compound 1 µM): 106%
- viability, T/C (second compound 10 µM, first compound 3.16 µM): 99.3%
- viability, T/C (second compound 10 µM, first compound 10 µM): 111%
- viability, T/C (second compound 31.6 µM, first compound 0.0316 µM): 108%
- viability, T/C (second compound 31.6 µM, first compound 0.1 µM): 117%
- viability, T/C (second compound 31.6 µM, first compound 0.316 µM): 109%
- viability, T/C (second compound 31.6 µM, first compound 1 µM): 105%
- viability, T/C (second compound 31.6 µM, first compound 3.16 µM): 108%
- viability, T/C (second compound 31.6 µM, first compound 10 µM): 105%
- viability, T/C (second compound 100 µM, first compound 0.0316 µM): 108%
- viability, T/C (second compound 100 µM, first compound 0.1 µM): 113%
- viability, T/C (second compound 100 µM, first compound 0.316 µM): 111%
- viability, T/C (second compound 100 µM, first compound 1 µM): 107%
- viability, T/C (second compound 100 µM, first compound 3.16 µM): 96.2%
- viability, T/C (second compound 100 µM, first compound 10 µM): 104%

Reference: PubChem BioAssay AID1845194 (Molecular Pharmacology Branch, DTP, NCI, 2023)
